Active and inactive are the calls of the source. The rule behind the calls is not given here.

The target in assay [1] is Serine/threonine-protein kinase pim-2 (Homo sapiens) (UniProt Q9P1W9). Kind of assay: Inhibition of human PIM2 assessed as residual activity at 10 uM relative to control.
Assay [2] addresses T1, Serine/threonine-protein kinase Chk1 (Homo sapiens, UniProt O14757).
T1 sequence (O14757 whole entry): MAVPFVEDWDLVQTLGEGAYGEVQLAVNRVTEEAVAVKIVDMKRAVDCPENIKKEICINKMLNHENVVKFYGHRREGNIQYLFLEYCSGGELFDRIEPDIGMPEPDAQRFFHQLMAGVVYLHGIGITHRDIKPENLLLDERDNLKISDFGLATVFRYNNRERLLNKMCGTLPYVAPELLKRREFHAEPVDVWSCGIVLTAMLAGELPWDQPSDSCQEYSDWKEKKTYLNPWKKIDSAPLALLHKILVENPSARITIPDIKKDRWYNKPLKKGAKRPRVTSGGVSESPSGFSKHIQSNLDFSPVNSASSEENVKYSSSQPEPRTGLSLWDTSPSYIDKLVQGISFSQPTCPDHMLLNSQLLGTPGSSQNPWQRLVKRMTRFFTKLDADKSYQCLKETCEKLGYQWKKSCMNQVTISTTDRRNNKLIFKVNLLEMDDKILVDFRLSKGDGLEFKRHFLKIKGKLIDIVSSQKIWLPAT
Kind of assay: Inhibition of human CHK1 in presence of 20 uM ATP.

Assay [3] concerns A-375. Kind of assay: Cell cycle arrest in human A375 cells assessed as accumulation at S phase at 1 uM after 48 hrs by FACS flow cytometric analysis (reference value: 25.1%). It is filed as functional. For orientation: In flow cytometry, cells or beads pass a laser one at a time.
In assay [4] the test system is A-375. Briefly: Cell cycle arrest in human A375 cells assessed as accumulation at G0-G1 phase at 5 uM after 48 hrs by FACS flow cytometric analysis (reference value: 55.4%). It is filed as functional.
The target of assay [5] is Mitogen-activated protein kinase 1 (Homo sapiens) (UniProt P28482). Kind of assay: Inhibition of human MAPK2 assessed as residual activity at 10 uM relative to control.
Assay [6] is filed under the species Homo sapiens. Briefly: Inhibition of human VEGFR assessed as residual activity at 10 uM relative to control.
In assay [7] the target is T2, Mitogen-activated protein kinase 12 (Homo sapiens) (UniProt P53778).
T2 sequence (whole entry): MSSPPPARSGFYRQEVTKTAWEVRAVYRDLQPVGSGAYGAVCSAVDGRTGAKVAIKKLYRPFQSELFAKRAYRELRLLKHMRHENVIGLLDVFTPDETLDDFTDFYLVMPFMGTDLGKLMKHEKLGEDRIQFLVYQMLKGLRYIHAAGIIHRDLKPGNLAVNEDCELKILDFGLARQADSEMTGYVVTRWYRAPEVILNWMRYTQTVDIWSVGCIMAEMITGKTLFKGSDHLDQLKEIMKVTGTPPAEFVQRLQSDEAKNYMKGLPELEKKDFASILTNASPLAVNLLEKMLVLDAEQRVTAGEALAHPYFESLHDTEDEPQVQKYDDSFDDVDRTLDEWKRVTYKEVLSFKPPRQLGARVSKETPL
Briefly: Inhibition of human p38gamma MAPK assessed as residual activity at 1 uM relative to control.

The subject of assay [8] is A-375. Kind of assay: Cell cycle arrest in human A375 cells assessed as accumulation at G0-G1 phase at 80 uM after 48 hrs by FACS flow cytometric analysis (reference value: 55.4%). It is filed as functional.
Assay [9] addresses T3, Mitogen-activated protein kinase 14 (Homo sapiens, UniProt Q16539). Kind of assay: Inhibition of human p38alpha MAPK in presence of 50 uM ATP.
The target of assay [10] is Fibroblast growth factor receptor 1 (Homo sapiens, UniProt P11362). Briefly: Inhibition of human FGFR1 in presence of 20 uM ATP.
Assay [11] deals with MAP kinase-activated protein kinase 2 (Homo sapiens) (UniProt P49137). Kind of assay: Inhibition of human MAPKAPK2 assessed as residual activity at 1 uM relative to control.
The target of assay [12] is T4, Casein kinase I/MDM2 (Homo sapiens) (UniProt Q00987+P48729). Briefly: Inhibition of CK1-MDM2 complex in human A375 cells assessed as increase in p53 protein level at 0.2 to 5 uM after 48 hrs by immunoblotting analysis. In kind it is cell-based. To be noted: A-375.
The subject of assay [13] is A-375. Briefly: Cell cycle arrest in human A375 cells assessed as accumulation at G2-M phase at 5 uM after 48 hrs by FACS flow cytometric analysis (reference value: 17.3%). In kind it is functional.
The target of assay [14] is T5, Mitogen-activated protein kinase 15 (Homo sapiens) (UniProt Q8TD08).
T5 sequence (whole entry): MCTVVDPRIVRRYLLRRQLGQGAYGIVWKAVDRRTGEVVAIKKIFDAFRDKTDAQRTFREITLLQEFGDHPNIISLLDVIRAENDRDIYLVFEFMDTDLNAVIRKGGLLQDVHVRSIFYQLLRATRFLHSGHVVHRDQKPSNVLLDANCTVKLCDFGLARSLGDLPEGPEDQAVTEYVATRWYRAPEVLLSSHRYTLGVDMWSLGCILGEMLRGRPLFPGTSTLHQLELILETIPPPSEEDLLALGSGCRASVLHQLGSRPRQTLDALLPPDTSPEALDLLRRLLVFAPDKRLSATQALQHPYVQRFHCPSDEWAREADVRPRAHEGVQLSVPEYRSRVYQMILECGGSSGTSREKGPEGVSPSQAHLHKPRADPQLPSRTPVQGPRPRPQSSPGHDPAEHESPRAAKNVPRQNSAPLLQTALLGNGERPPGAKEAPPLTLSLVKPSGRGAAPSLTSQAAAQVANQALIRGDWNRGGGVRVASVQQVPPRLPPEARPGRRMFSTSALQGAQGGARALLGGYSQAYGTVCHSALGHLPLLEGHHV
Briefly: Inhibition of human ERK8 assessed as residual activity at 10 uM relative to control.

Assay [15] has as its target Serine/threonine-protein kinase pim-2 (Homo sapiens) (UniProt Q9P1W9). Briefly: Inhibition of human PIM2 assessed as residual activity at 1 uM relative to control.
Assay [16] has as its system A-375. Kind of assay: Cell cycle arrest in human A375 cells assessed as accumulation at G2-M phase at 80 uM after 48 hrs by FACS flow cytometric analysis (reference value: 17.3%). It is filed as functional.
Assay [17] deals with Mitogen-activated protein kinase 1 (Homo sapiens) (UniProt P28482). Kind of assay: Inhibition of human MAPK2 assessed as residual activity at 1 uM relative to control.
The species entered for assay [18] is Homo sapiens. Kind of assay: Inhibition of human VEGFR assessed as residual activity at 1 uM relative to control.
Assay [19] concerns the target Casein kinase I isoform delta (Rattus norvegicus, UniProt Q06486). Briefly: Inhibition of rat CK1delta in presence of 20 uM ATP.
Assay [20] deals with A-375. Briefly: Cell cycle arrest in human A375 cells assessed as accumulation at sub-G1 phase at 20 uM after 48 hrs by FACS flow cytometric analysis (reference value: 2.17%). It is filed as functional.
Assay [21] concerns the target T3, Mitogen-activated protein kinase 14. Kind of assay: Inhibition of human p38alpha MAPK assessed as residual activity at 1 uM relative to control.
The target in assay [22] is T4, Casein kinase I/MDM2 (Homo sapiens). Kind of assay: Inhibition of CK1-MDM2 complex in human A375 cells assessed as increase in p21 protein level at 5 to 40 uM compound transfected into cells using attractene carrier after 48 hrs by immunoblotting analysis. In kind it is cell-based. To be noted: A-375. In general terms: In western blotting, separated proteins are transferred to a membrane and probed.

The target is the same in assay [23]. Kind of assay: Inhibition of CK1-MDM2 complex in human A375 cells assessed as increase in p53 protein level at 5 to 40 uM compound transfected into cells using attractene carrier after 48 hrs by immunoblotting analysis. It is filed as cell-based. The conditions noted are these: A-375.

Sequence of Mitogen-activated protein kinase 1 (Homo sapiens) (P28482 whole entry): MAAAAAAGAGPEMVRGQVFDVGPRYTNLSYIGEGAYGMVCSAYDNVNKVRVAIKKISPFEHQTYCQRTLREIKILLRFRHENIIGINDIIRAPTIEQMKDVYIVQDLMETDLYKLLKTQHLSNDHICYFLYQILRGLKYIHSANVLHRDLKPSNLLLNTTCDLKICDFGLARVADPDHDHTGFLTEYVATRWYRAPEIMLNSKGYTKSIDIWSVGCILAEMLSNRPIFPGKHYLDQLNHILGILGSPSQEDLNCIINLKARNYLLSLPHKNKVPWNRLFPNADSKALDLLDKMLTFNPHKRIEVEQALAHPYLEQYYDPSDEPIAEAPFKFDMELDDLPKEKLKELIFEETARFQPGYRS
T4 sequence (P48729 whole entry, looked up): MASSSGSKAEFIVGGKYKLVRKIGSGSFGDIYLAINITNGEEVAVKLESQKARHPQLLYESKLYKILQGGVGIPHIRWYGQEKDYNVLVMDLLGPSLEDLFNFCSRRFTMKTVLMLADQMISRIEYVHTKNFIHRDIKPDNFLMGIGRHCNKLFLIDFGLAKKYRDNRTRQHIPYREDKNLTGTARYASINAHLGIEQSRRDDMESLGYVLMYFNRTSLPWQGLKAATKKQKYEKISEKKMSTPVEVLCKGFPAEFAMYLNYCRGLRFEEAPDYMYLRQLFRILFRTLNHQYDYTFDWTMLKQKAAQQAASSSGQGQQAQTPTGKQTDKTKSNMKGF
T4 sequence (Q00987 whole entry, looked up): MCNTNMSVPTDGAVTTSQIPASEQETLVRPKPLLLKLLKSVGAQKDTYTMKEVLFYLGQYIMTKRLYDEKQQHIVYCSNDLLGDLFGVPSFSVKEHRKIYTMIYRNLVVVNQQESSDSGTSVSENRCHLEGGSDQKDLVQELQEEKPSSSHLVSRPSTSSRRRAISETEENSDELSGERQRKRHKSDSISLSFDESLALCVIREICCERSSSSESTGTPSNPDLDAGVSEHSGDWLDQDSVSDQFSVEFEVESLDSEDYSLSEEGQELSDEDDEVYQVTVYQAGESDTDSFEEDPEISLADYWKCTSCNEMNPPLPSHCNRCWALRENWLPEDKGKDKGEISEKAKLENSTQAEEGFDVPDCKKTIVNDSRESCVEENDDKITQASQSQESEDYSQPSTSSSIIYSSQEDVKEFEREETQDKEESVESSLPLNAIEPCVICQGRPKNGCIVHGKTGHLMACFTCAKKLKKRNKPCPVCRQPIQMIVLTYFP
T3 sequence (Q16539 whole entry): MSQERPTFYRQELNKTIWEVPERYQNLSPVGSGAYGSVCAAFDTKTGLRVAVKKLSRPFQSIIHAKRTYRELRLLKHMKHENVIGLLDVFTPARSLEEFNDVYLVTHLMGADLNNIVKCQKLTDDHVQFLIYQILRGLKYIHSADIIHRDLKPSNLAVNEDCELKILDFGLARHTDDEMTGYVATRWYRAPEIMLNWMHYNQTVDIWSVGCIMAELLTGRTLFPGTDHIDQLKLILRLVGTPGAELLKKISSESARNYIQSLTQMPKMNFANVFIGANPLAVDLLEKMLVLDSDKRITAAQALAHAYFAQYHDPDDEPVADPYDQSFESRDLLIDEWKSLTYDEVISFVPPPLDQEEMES
Sequence of Serine/threonine-protein kinase pim-2 (Homo sapiens) (Q9P1W9 whole entry, looked up): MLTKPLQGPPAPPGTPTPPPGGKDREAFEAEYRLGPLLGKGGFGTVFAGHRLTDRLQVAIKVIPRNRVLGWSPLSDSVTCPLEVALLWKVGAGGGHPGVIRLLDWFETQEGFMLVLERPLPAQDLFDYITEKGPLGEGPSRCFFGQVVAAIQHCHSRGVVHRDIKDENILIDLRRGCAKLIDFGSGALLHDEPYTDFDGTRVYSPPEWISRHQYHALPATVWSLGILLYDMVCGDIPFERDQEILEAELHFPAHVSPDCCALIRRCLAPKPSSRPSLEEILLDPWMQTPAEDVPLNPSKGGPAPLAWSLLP
Sequence of Casein kinase I isoform delta (Q06486 whole entry, canonical isoform): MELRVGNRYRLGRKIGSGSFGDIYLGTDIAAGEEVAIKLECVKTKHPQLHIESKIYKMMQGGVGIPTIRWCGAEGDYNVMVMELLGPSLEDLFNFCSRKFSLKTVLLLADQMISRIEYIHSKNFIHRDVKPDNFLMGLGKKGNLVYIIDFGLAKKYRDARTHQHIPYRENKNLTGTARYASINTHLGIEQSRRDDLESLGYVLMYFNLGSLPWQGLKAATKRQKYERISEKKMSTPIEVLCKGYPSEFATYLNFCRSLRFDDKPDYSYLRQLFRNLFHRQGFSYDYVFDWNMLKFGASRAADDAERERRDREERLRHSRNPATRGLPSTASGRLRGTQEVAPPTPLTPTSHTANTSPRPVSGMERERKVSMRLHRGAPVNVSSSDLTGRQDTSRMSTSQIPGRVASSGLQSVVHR
Sequence of MAP kinase-activated protein kinase 2 (Homo sapiens) (P49137 whole entry, looked up): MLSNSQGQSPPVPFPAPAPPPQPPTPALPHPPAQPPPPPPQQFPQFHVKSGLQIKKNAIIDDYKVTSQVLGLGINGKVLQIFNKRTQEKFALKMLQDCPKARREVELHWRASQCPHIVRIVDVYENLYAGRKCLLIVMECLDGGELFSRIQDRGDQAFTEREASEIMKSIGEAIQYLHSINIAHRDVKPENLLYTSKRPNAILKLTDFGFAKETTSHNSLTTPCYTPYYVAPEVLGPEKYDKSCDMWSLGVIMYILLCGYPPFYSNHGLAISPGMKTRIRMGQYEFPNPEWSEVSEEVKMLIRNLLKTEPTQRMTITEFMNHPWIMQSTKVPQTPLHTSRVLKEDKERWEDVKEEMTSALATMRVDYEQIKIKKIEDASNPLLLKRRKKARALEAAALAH
Sequence of Fibroblast growth factor receptor 1 (P11362 whole entry): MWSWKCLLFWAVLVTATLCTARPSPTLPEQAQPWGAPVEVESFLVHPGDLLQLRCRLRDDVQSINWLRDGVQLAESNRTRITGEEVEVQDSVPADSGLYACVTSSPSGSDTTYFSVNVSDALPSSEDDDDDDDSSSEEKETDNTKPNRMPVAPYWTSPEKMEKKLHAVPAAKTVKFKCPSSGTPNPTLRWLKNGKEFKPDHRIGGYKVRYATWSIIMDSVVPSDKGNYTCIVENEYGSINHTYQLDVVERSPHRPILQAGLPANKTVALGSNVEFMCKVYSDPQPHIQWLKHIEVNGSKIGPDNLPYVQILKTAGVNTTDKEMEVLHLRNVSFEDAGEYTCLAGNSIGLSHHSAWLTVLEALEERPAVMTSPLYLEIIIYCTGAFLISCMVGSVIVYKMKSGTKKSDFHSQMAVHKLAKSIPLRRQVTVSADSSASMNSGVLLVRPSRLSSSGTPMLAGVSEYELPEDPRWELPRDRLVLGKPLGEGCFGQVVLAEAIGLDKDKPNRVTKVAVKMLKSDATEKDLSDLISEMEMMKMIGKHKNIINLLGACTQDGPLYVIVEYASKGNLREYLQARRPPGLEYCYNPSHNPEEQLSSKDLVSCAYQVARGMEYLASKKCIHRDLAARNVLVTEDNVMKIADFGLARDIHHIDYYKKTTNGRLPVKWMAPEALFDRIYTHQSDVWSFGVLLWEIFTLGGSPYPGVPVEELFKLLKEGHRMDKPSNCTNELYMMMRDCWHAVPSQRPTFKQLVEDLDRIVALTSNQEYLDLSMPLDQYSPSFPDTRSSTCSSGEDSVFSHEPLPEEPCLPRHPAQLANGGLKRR

In general, IC50 refers to the midpoint of a concentration-inhibition curve. For `CC(=O)Nc1cccc(-c2cnc3[nH]nc(C)c3c2)c1`, the Activity in [1] is 58.7%; in the assay on A-375 [3], 21.6%; with A-375 [4], 50.8%; in assay [5] it was 82.7%; in the assay filed under Homo sapiens [6], 20.3%; in assay [7], 117%. In addition, the Activity in the assay with A-375 [8] turned out to be 5.36%; in assay [11], 63.8%; in the assay with A-375 [13], 15.9%; in assay [14], 15.8%; in assay [15] it was 79%; in the assay with A-375 [16], 37.3%. The Activity was 91.7% in assay [17], 54.5% in the assay listed under Homo sapiens [18] and 50.5% with A-375 [20]. For the same compound, the IC50 is 232 nM in assay [2] (read-out: IC50), “Not Active” in assay [9], 6000 nM in assay [10] and 893 nM in [19]. Also, the inhibition entry in assay [12] is “Active”.
`CCCC(=O)Nc1n[nH]c2ncc(-c3cccnc3)cc12`: the Activity in [21] was 84%.
Turning to `CC(=O)Nc1nccc(-c2c(-c3ccccc3)noc2C)n1`, the Activity in assay [1] is 103%; in [5] it was 93%; in the assay listed under Homo sapiens [6], 50.8%; in assay [7] it was 97.1%; in the assay on A-375 [8], 58.5%; in [11] it was 94.7%. Also, the Activity stood at 89.5% in assay [14]; 119% in [15]; 16.2% with A-375 [16]; 106% in [17]; 79.5% in the assay listed under Homo sapiens [18]. For the same compound, the IC50 entry in [2] was “Not Active”; in assay [9] (read-out: IC50), 2040 nM; in assay [19], 838 nM. In addition, the inhibition entry in [22] and in assay [23] was “inactive” in each case.

(Values after ChEMBL document CHEMBL2429821, “A Casein kinase 1/Checkpoint kinase 1 pyrazolo-pyridine protein kinase inhibitor as novel activator of the p53 pathway” (Bioorg Med Chem Lett, 2013).)
